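Tested at 5 concentrations; 48 h exposure; 96-well plates; endpoints linearly interpolated, else capped at highest concentration. TGI is the concentration that stops growth completely.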
Experiments:
Assay in all cases: NCI tumour cell line growth inhibition, 48 h
A498 renal = test system: A498 renal
A549 NSCLC = test system: A549 NSCLC
CAKI-1 renal = test system: CAKI-1 renal
CCRF-CEM leukemia = test system: CCRF-CEM leukemia
COLO 205 colon = test system: COLO 205 colon
DLD-1 colon = test system: DLD-1 colon
DMS 114 small cell lung = test system: DMS 114 small cell lung
DMS 273 small cell lung = test system: DMS 273 small cell lung
EKVX NSCLC = test system: EKVX NSCLC
HCC-2998 colon = test system: HCC-2998 colon
HCT-116 colon = test system: HCT-116 colon
HCT-15 colon = test system: HCT-15 colon
HOP-18 NSCLC = test system: HOP-18 NSCLC
HOP-62 NSCLC = test system: HOP-62 NSCLC
HOP-92 NSCLC = test system: HOP-92 NSCLC
HT29 colon = test system: HT29 colon
IGROV1 ovarian = test system: IGROV1 ovarian
K-562 leukemia = test system: K-562 leukemia
KM12 colon = test system: KM12 colon
KM20L2 colon = test system: KM20L2 colon
LOX IMVI melanoma = test system: LOX IMVI melanoma
M19-MEL melanoma = test system: M19-MEL melanoma
MALME-3M melanoma = test system: MALME-3M melanoma
MCF7 breast = test system: MCF7 breast
MOLT-4 leukemia = test system: MOLT-4 leukemia
NCI-H226 lung = test system: NCI-H226 lung
NCI-H23 lung = test system: NCI-H23 lung
NCI-H460 lung = test system: NCI-H460 lung
NCI-H522 lung = test system: NCI-H522 lung
NCI/ADR-RES ovarian = test system: NCI/ADR-RES ovarian
OVCAR-3 ovarian = test system: OVCAR-3 ovarian
OVCAR-4 ovarian = test system: OVCAR-4 ovarian
OVCAR-5 ovarian = test system: OVCAR-5 ovarian
OVCAR-8 ovarian = test system: OVCAR-8 ovarian
P388 leukemia = test system: P388 leukemia
P388/ADR leukemia = test system: P388/ADR leukemia
RPMI-8226 leukemia = test system: RPMI-8226 leukemia
RXF 393 renal = test system: RXF 393 renal
SF-268 CNS = test system: SF-268 CNS
SF-295 CNS = test system: SF-295 CNS
SF-539 CNS = test system: SF-539 CNS
SK-MEL-2 melanoma = test system: SK-MEL-2 melanoma
SK-MEL-28 melanoma = test system: SK-MEL-28 melanoma
SK-MEL-5 melanoma = test system: SK-MEL-5 melanoma
SK-OV-3 ovarian = test system: SK-OV-3 ovarian
SN12C renal = test system: SN12C renal
SN12K1 renal = test system: SN12K1 renal
SNB-19 CNS = test system: SNB-19 CNS
SNB-75 CNS = test system: SNB-75 CNS
SNB-78 CNS = test system: SNB-78 CNS
SW-620 colon = test system: SW-620 colon
U251 CNS = test system: U251 CNS
UACC-257 melanoma = test system: UACC-257 melanoma
UACC-62 melanoma = test system: UACC-62 melanoma
UO-31 renal = test system: UO-31 renal
XF 498 CNS = test system: XF 498 CNS

COc1cc2cc3c4cc(OC)c(OC)cc4cc[n+]3cc2cc1OC
TGI (A498 renal): > 100 µM
TGI (A549 NSCLC): > 100 µM
TGI (CAKI-1 renal): > 100 µM
TGI (CCRF-CEM leukemia): > 100 µM
TGI (COLO 205 colon): > 100 µM
TGI (DLD-1 colon): > 100 µM
TGI (DMS 114 small cell lung): 6.6 µM
TGI (DMS 273 small cell lung): > 100 µM
TGI (EKVX NSCLC): > 100 µM
TGI (HCC-2998 colon): > 100 µM
TGI (HCT-116 colon): > 100 µM
TGI (HCT-15 colon): > 100 µM
TGI (HOP-18 NSCLC): > 100 µM
TGI (HOP-62 NSCLC): > 100 µM
TGI (HOP-92 NSCLC): > 100 µM
TGI (HT29 colon): > 100 µM
TGI (IGROV1 ovarian): > 100 µM
TGI (K-562 leukemia): > 100 µM
TGI (KM12 colon): > 100 µM
TGI (KM20L2 colon): > 100 µM
TGI (LOX IMVI melanoma): > 100 µM
TGI (M19-MEL melanoma): > 100 µM
TGI (MALME-3M melanoma): > 100 µM
TGI (MCF7 breast): > 31.6 µM
TGI (MOLT-4 leukemia): > 96.8 µM
TGI (NCI-H226 lung): > 100 µM
TGI (NCI-H23 lung): > 100 µM
TGI (NCI-H460 lung): > 100 µM
TGI (NCI-H522 lung): > 100 µM
TGI (NCI/ADR-RES ovarian): > 100 µM
TGI (OVCAR-3 ovarian): > 73.3 µM
TGI (OVCAR-4 ovarian): > 100 µM
TGI (OVCAR-5 ovarian): > 100 µM
TGI (OVCAR-8 ovarian): > 100 µM
TGI (P388 leukemia): > 100 µM
TGI (P388/ADR leukemia): > 100 µM
TGI (RPMI-8226 leukemia): > 100 µM
TGI (RXF 393 renal): > 100 µM
TGI (SF-268 CNS): > 100 µM
TGI (SF-295 CNS): > 100 µM
TGI (SF-539 CNS): > 100 µM
TGI (SK-MEL-2 melanoma): > 100 µM
TGI (SK-MEL-28 melanoma): > 100 µM
TGI (SK-MEL-5 melanoma): > 100 µM
TGI (SK-OV-3 ovarian): > 100 µM
TGI (SN12C renal): > 100 µM
TGI (SN12K1 renal): > 100 µM
TGI (SNB-19 CNS): > 100 µM
TGI (SNB-75 CNS): > 100 µM
TGI (SNB-78 CNS): > 100 µM
TGI (SW-620 colon): > 100 µM
TGI (U251 CNS): > 100 µM
TGI (UACC-257 melanoma): > 100 µM
TGI (UACC-62 melanoma): > 100 µM
TGI (UO-31 renal): > 100 µM
TGI (XF 498 CNS): > 100 µM
